According to article PMC10855164, “Ligand-Based Design of Selective Peptidomimetic uPA and TMPRSS2 Inhibitors with Arg Bioisosteres” (International Journal of Molecular Sciences, 2024):

Key:
[1] = biological target: T1, thrombin (Homo sapiens, UniProt P00734); set-up: method as in PMID 35804152; details: published inhibitor; cited from earlier work
T1 construct: purchased Bio-techne

[2] = biological target: T2, factor Xa (Homo sapiens, UniProt P00742); set-up: method as in PMID 35804152; details: published inhibitor; cited from earlier work
T2 construct: purchased Bio-techne

[3] = biological target: T3, matriptase (Homo sapiens, UniProt Q9Y5Y6); set-up: method as in PMID 35804152; details: published inhibitor; cited from earlier work
T3 construct: catalytic domain of matriptase (uniport: Q9Y5Y6 aa 596–855); hexa-histidine (N); made in house; host or cells: Escherichia coli BL21 Gold (DE3)
T3 sequence (Q9Y5Y6 596-855): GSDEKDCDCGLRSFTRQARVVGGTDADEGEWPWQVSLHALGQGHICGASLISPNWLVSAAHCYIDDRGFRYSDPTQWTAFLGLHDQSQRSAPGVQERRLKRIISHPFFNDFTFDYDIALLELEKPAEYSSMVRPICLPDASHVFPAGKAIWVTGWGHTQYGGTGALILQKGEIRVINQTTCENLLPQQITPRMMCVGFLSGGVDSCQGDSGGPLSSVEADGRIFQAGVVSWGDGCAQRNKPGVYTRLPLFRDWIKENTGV

[4] = biological target: T4, TMPRSS2 (Homo sapiens, UniProt O15393); set-up: method as in PMID 35804152; details: published inhibitor; cited from earlier work
T4 construct: purchased Cusabio

[5] = biological target: T1, thrombin; assay: fluorometric enzyme inhibition assay, thrombin (Z-Gly-Gly-Arg-AMC); format: biochemical; details: quotient Ki thrombin / Ki TMPRSS2, from cited Ki values (ref 29)
Procedure: (§1) The inhibitory activity of the synthesized compounds towards the respective main- and off-target proteases was measured via fluorometric and colorimetric assays. Thus, fluorogenic AMC- or colorimetric pNA-based substrates with a peptide sequence suitable for the tested protease were utilized (see Supplementary Figure S2). At first, the compounds were screened against […] proteases (uPA, TMPRSS2, matriptase, tPA, thrombin, factor Xa) at 20 µM, and a cut-off value of 80% inhibition at this concentration was set, for the differentiation between nonactive (n.a.) and active inhibitors. Due to the reversible inhibition mechanism of the ketobenzothiazole derivates, the IC50 values were determined with Graphpad Prism 9, and afterwards converted to the corresponding Ki values for an adequate comparison between the inhibitory activities of the compounds toward all tested proteases. The Ki values were calculated using the Cheng–Prusoff equation [43].
(§2) Fluorometric inhibition assays
(§3) The inhibitory activities of the compounds against the proteases were determined by enzyme inhibition assays with fluorogenic or colorimetry-based substrates. The fluorescence, caused by cleaved AMC from the fluorogenic substrates (uPA, matriptase, TMPRSS2, thrombin), was measured in white flat-bottom 96-well plates from Greiner Bio-One using a Tecan Infinite F200 Pro plate reader. The absorption, caused by cleaved pNA from colorimetric substrates (factor Xa and tPA), was measured in transparent flat-bottom 96-well plates from Greiner Bio-One using a Tecan Spark 10M plate reader. All measurements with the main-target proteases (uPA and TMRPSS2) were performed as triplicates and with the off-target proteases (matriptase, factor Xa, tPA, thrombin) as duplicates. The substrates and the compounds were prepared as stock solutions in DMSO. Each well contained a total volume of 200 µL, consisting of 185 µL buffer, 5 µL inhibitor in DMSO or pure DMSO as negative control, 5 µL substrate in DMSO and 5 µL enzyme solution in buffer. Dilution series were prepared for the determination of the inhibition constants. The fluorescence signal and absorbance were measured every 30 s for 10 min at 25 or 37 °C with the corresponding excitation/emission (λex = 380 nm / λem = 460 nm) and absorbance (λabs = 405 nm) wavelengths, depending on the targeted protease. IC50 values for the reversible inhibitors were calculated with Graphpad Prism 9 by fitting the remaining enzymatic activity to the four parameter IC50 equation with Y [%] as the residual enzyme activity , Ymax as the maximum value of the dose response curve at inhibitor concentrations [I] = 0 µM, Ymin as the minimum value at high inhibitor concentrations and s as the hill coefficient.[1] The fluorescence progress curves and sigmoidal dose-response curve for inhibition of uPa by compound 38 is shown exemplary in Figure S2. […]
(§4) Due to the dependence of the IC50 value on the substrate affinity and concentration, the Ki values were calculated with the Cheng-Prusoff equation, using the final substrate concentration [S] and the Michaelis-Menten constant KM, (2) for appropriate comparison of the inhibitory activities to the other enzymes and inhibitors.[1]
(§5) KM values were determined by fitting to the Michaelis-Menten equation using Graphpad Prism 9 with v [ΔF/min] as the substrate hydrolysis rate, vmax as the maximum slope of the dose-response curve, and the substrate [S] concentration.[1] The different substrates were serially diluted in DMSO. The measurement was done in analogy to the determination of the inhibitory activity, but with 5 µL pure DMSO instead of inhibitor solution. […]
(§6) The following buffers and substrates were used for the respective assays: uPA (50 mM Tris HCl pH = 7.9, 150 mM […]
(§7) TMPRSS2 (25 mM Tris HCl pH = 8.0, 150 mM NaCl, 5 mM CaCl2, 0.001% TX-100, 100 µM Boc-Gln-Ala-Arg-AMC (KM: 68.63 ± 6.64 µM), 25 °C, 3 nM TMPRSS2)[3]; matriptase (50 mM Tris HCl pH = 8.0, 150 mM NaCl, 5 mM CaCl2, […]

[6] = biological target: T3, matriptase; assay: fluorometric enzyme inhibition assay, matriptase (Boc-Leu-Arg-Arg-AMC); format: biochemical; details: quotient Ki matriptase / Ki TMPRSS2, from cited Ki values (ref 29)
Procedure: as §1, §2, §3, §4, §5, §6, §7

[7] = biological target: T2, factor Xa; assay: colorimetric enzyme inhibition assay, factor Xa (Z-D-Arg-Gly-Arg-pNA); format: biochemical; details: quotient Ki factor Xa / Ki TMPRSS2, from cited Ki values (ref 29)
Procedure: as §1, §2, §3, §4, §5, §6, §7

T2 sequence (P00742 235-488 limits assumed): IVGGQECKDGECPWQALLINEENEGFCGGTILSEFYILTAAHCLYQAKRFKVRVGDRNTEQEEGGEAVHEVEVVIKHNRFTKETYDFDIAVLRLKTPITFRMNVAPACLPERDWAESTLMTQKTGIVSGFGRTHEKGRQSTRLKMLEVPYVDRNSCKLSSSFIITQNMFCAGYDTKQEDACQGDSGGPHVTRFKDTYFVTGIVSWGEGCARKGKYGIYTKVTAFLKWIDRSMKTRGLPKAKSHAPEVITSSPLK
T2 sequence (P00742 41-179 partner limits assumed): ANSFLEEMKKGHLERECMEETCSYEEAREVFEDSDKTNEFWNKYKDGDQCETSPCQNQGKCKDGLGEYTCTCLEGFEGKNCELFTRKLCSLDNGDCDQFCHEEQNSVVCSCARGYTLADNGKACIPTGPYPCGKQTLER
T4 sequence (O15393 whole entry): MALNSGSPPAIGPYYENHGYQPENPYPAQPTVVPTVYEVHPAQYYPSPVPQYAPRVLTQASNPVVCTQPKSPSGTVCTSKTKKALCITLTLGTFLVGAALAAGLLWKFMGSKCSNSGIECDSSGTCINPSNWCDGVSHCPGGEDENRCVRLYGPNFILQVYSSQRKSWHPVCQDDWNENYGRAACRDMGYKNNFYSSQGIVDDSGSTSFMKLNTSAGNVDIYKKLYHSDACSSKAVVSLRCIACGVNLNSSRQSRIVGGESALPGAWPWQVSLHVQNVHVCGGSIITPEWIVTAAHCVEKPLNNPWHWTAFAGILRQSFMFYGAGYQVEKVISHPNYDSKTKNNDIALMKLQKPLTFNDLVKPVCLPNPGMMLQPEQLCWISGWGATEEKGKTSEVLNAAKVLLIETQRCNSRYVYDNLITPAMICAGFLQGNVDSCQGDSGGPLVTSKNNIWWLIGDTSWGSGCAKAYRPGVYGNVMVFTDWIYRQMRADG

Selectivity index [SI] Thrombin [5]: 418
Selectivity index [SI] Matriptase [6]: 2
Selectivity index [SI] Factor Xa [7]: 16
Compound: CC(=O)N[C@@H](CC(N)=O)C(=O)N1CCC[C@H]1C(=O)N[C@@H](CCCNC(=N)N)C(=O)c1nc2ccccc2s1 [Ac-L-Asn-L-Pro-L-Arg-kbt]
Ki [1]: 1.05 µM
Ki [2]: 0.0411 µM
Ki [3]: 0.0052 µM
Ki [4]: 0.0025 µM
